# Data: patent publication US20020055470A1, “Circumvention of human tumor drug resistance” (CITY OF HOPE, priority 1987, published 2002)
# Read-outs that look alike come from different tables or passages of the source.
# Columns and labels:
# Assay type in all cases: cell-based, human
# HCT8DDP = assay: Inhibition of cell growth (cells counted on Coulter Counter after six days); conditions: HCT8-DDP, read-out: EC50
# Method: (§1) Table VI includes EC50 data further exemplifying the invention. The data reported by Table VI was obtained by substantially the same procedure as that described with respect to Table III. In Table VI, “(C)” indicates continuous exposure, “(1 h)” and “(2 h)” indicate exposure for 1 hour and 2 hours; “HU” indicates hydroxyurea.
# HCT8S = assay: as above; conditions: read-out: EC50
# Method: as §1
# HCF7S = assay: Inhibition of cell growth, Table VI
# K562S = assay: Inhibition of cell growth, Table VI
# Method: as §1
# HCF-7 DDP = assay: Inhibition of cell growth, Table VI; conditions: HCF-7 DDP
# Method: as §1
# K562-araC = assay: Inhibition of cell growth, Table VI; conditions: K562-araC
# Method: as §1
# A2780S = assay: Inhibition of cell growth (cells counted on Coulter Counter after six days)
# Method: The experiment was conducted in triplicate in the manner described with respect to Table I.
# A2780 cells were well-plated (35 mm disnes) and 24 hours later the cells were treated with cisplatin for one hour, washed out and then treated with 6 concentrations of from 1 μM to 100 μM increased in equal increments of a nucleoside analog in saline. Cells were then washed and incubated for six days. The cells were counted on a Coulter Counter and the experiment was done in triplicate.
# as §1
# A2780DDP [1] = assay: as above; conditions: for Ratio (degree of resistance or cross-resistance): A2780DDP vs A2780S EC50
# Method: The experiment was conducted in triplicate in the manner described with respect to Table I. […]
# as §1
# K562-VP16 = assay: Inhibition of cell growth, Table VI
# K562-DDP = assay: Inhibition of cell growth, Table VI; conditions: K562-DDP
# A2780DDP [2] = assay: Dual labeled (14C/3H) DNA synthesis and degradation in response to cisplatin; incorporation of labelled nucleoside analogs; conditions: A2780DDP
# Excerpt: A dual labeled (^14C/^3H) experiment was designed to measure simultaneously DNA synthesis and degradation in response to cisplatin.
# [3] = continuous exposure, proliferation during 6 days, mean + SD, read-out: EC50 A2780S
# [4] = continuous exposure, proliferation during 6 days, mean + SD, read-out: EC50 A2780DDP
# [5] = A2780S, (C) continuous exposure, read-out: EC50
# [6] = A2780 DDP, (C) continuous exposure, read-out: EC50
SMILES,EC50 (K562S; (C) continuous exposure) [µM],EC50 (K562-araC; (C) continuous exposure) [µM],EC50 (K562-VP16; (C) continuous exposure) [µM],EC50 (K562-DDP; (C) continuous exposure) [µM],EC50 (A2780S; [3]) [µM],Ratio (degree of resistance or cross-resistance) (A2780DDP [1]; continuous exposure),EC50 (A2780DDP [1]; [4]) [µM],EC50 (HCT8DDP; (C) continuous exposure) [µM],EC50 (HCT8S; (C) continuous exposure) [µM],EC50 (HCF7S; (C) continuous exposure) [µM],EC50 (HCF-7 DDP; (C) continuous exposure) [µM],EC50 (A2780S; [5]) [µM],EC50 (A2780DDP [1]; [6]) [µM],also measured
Nc1ccn([C@@H]2O[C@H](CO)[C@@H](O)[C@@H]2O)c(=O)n1 [araC],–,–,–,–,0.1,+45.0,4.5,–,–,–,–,–,–,"EC50 (HCT8DDP; (2h) exposure): 79 µM; EC50 (HCT8S; (2h) exposure): 29 µM; EC50 (HCF7S; (2h) exposure): 2.5 µM; EC50 (K562S; (2h) exposure): 0.3 µM; EC50 (HCF-7 DDP; (2h) exposure): 5 µM; EC50 (K562-araC; (2h) exposure): 8 µM; EC50 (A2780S; A2780S, (2h) exposure, read-out: EC50): 0.1 µM; EC50 (A2780DDP [1]; A2780 DDP, (2h) exposure, read-out: EC50): 4.5 µM; EC50 (K562-VP16; (2h) exposure): 8 µM; EC50 (K562-DDP; (2h) exposure): 0.3 µM"
NC(=O)c1ncn([C@@H]2O[C@H](CO)[C@@H](O)[C@H]2O)n1 [Ribovirin],62,42,55,75,–,–,–,50,70,100,–,27,45,–
Nc1ncnc2c1ncn2[C@@H]1O[C@H](CO)[C@@H](O)[C@@H]1O [araA],–,–,–,–,16.2,+4.0,64.7,–,–,–,–,–,–,Incorporation of labelled nucleoside analog into macromolecules (A2780DDP [2]; 0 min after cisplatin (20 μM) treatment): 19.01; Incorporation of labelled nucleoside analog into macromolecules (A2780DDP [2]; 45 min after cisplatin (20 μM) treatment): 24.21; Incorporation of labelled nucleoside analog into macromolecules (A2780DDP [2]; 90 min after cisplatin (20 μM) treatment): 27.91; Incorporation of labelled nucleoside analog into macromolecules (A2780DDP [2]; 180 min after cisplatin (20 μM) treatment): 32.70

# Second part, led by results:
EC50 (K562S; (C) continuous exposure) [µM],EC50 (K562-araC; (C) continuous exposure) [µM],EC50 (K562-VP16; (C) continuous exposure) [µM],EC50 (K562-DDP; (C) continuous exposure) [µM],SMILES,EC50 (A2780S; [3]) [µM],Ratio (degree of resistance or cross-resistance) (A2780DDP [1]; continuous exposure),EC50 (A2780DDP [1]; [4]) [µM],EC50 (HCT8DDP; (C) continuous exposure) [µM],EC50 (HCT8S; (C) continuous exposure) [µM],EC50 (HCF7S; (C) continuous exposure) [µM],EC50 (HCF-7 DDP; (C) continuous exposure) [µM],EC50 (A2780S; [5]) [µM],EC50 (A2780DDP [1]; [6]) [µM],also measured
> 400,> 400,200,> 400,"Cc1cn([C@H]2CC[C@@H](CO)O2)c(=O)[nH]c1=O [ddT, 2′,3′-dideoxythymidine]",–,–,–,> 500,> 150,> 500,> 500,110,> 750,–
37.5,36,35,28,"Nc1ncnc2c1ncn2[C@H]1CC[C@@H](CO)O1 [ddA, 2′3′-dideoxyadenosine]",–,–,–,36,33,30,30,10,25,–
160,150,170,190,"Nc1nc2c(ncn2[C@H]2CC[C@@H](CO)O2)c(=O)[nH]1 [ddG, 2′,3′-dideoxyquanosene]",–,–,–,45,35,210,180,60,110,–
